# “Also recorded” adds a separate entry of the source.
# Tests used:
# SW 480 = assay: MTT cell proliferation assay, SW 480; assay type: cell-based; details: SW480, 72 h; SW 480 human colorectal carcinoma; MTT after 3 days of incubation; read-out: IC50, inhibition of proliferation
# Description: (§1) Compound 2 was tested on a series of cell lines to determine its activity and selectivity (Table 2). Cell proliferation was measured using the MTT assay (for protocol see Example 2.6) after 3 days of incubation with the inhibitor.
# (§2) • Cells plated at […] in 100 μl medium+5% FCS (+Adds^1): • Cells incubated overnight: • Titrate inhibitors in a fresh plate in 150 μl medium • Transfer 100 μl titrated compounds to matching wells of the cell plate. • Incubate a further 4 days: • Add 10 μl MTS^2 or MTT^3 for 1.5 to 2 hours and read on Multiscanner (wavelengths 492/690) ^1 Additives for culture of LIM cell lines: 10 μM thioglycerol, 0.025 U/ml insulin, 1 μg/ml hydrocortisone. ^2 3-(4,5-dimethylthiazol-2-yl)-5-(3-carboxymethoxyphenyl)-2-(4-sulfophenyl)-2H-tetrazolium. ^3 3-(4,5-Dimethylthiazol-2-yl)-2,5-diphenyltetrazolium bromide
# (§3) Cells are trypsinized and washed ×2 in medium+5% FCS and plate out at 10^4 cells per well in 100 μl.
# (§4) Incubate plates o/n 37° C.+5%-10% CO2 incubator.
# (§5) Inhibitors are dissolved in DMSO to make 10 mM stocks and titrated in a 96 well plate in duplicate to use as the stock for the test plate. […]
# (§6) Read OD of plates on Thermo Multiskan Ex, at 560/690 nm.
# BaF/3 = assay: MTT cell proliferation assay, BaF/3; assay type: cell-based; details: Mus musculus, BaF3, 72 h; BaF/3 murine B-cell progenitor line; MTT after 3 days of incubation; read-out: IC50, inhibition of proliferation
# Description: as §1, §2, §3, §4, §5, §6
# [1] = system: U87MG(Δ2-7) (brain cancer cell line) tumours; assay: Tumor xenograft study with U87MG(Δ2-7); assay type: in vivo, Balb/c nu/nu mice
# Description: FIG. 8: U87MG(Δ2-7) tumor growth in nude mice. Tumor diameters were measured with external callipers every three days and tumor volume calculated with the formula: π/6×(L×W2).
# Mice: Balb/c nu/nu male; 8 controls and 8 treated.
# Cells inoculated: U87MG(Δ2-7) at 2.13×10^6 cells/tumour; two tumours per mouse.
# (§7) Dose: Compound 2 at 20 mg/kg=100 μl of 4 mg/ml in water for injection per 20 g mouse. Control mice were injected with 100 μl water for injection.
# Treatment and monitoring: Treatment commenced at Day 5 after inoculation. Mice were injected SC in abdomen three times per week (Mon, Wed, Fri), on alternating sides. Mice were weighed, tumour diameters measured in two dimensions and the health of the mice was monitored.
# After mice were sacrificed: the tumours were dissected and weighed; spleens and livers were also weighed.
# MDA-MB-231 [2] = assay: MTT cell proliferation assay, MDA-MB-231; assay type: cell-based; details: 72 h; MDA-MB-231 human breast carcinoma; MTT after 3 days of incubation; read-out: IC50, inhibition of proliferation
# Description: as §1, §2, §3, §4, §5, §6
# MCF-7 [3] = assay: Antimitotic effects (G2/M cell cycle block, DNA staining, ModFit) on MCF-7; assay type: cell-based, human
# Text: (§8) For the initial studies two colon carcinoma cell lines (LIM1215 and SW480) and two breast cancer cell lines (MDA-MB-231 and MCF-7) were used. Taxol was used as comparator in these experiments (Table 1).
# BaF/3 cells = assay: Anti-mitotic effects of metabolites recovered from mouse plasma (G2/M, FACS); assay type: cell-based, murine; details: BaF3, 24 hr, FACS with Propidium Iodide, concentration of recovered peaks difficult to quantify, read-out: IC50 (G2/M block) of peaks recovered from mouse plasma
# Description: FIG. 5: Anti-mitotic effects of metabolites recovered from mouse plasma after compound 2 injection. BaF/3 cells were incubated for 24 hr with increasing amounts of each reconstituted peak. Cell cycle distribution was assessed by FACS analysis using Propidium Iodide. The percentage of cells in the G2/M phase of the cell cycle was determined using ModFi
# The mouse plasma was fractionated on RP-HPLC and the peaks indicated above were collected. The pooled peak samples were concentrated by lyophilization. A portion of each peak sample was reconstituted in culture media for bioassay (FIG. 5). The remainder was analyzed by LC-MS to confirm the mass and identify the structures.
# [4] = system: H1437 (non-small cell lung cancer cell line) tumours; assay: Tumor xenograft study with H1437; assay type: in vivo, Balb/c nu/nu mice
# Description: FIG. 10: H1437 tumor growth in nude mice. Tumor diameters were measured with external callipers every three days and tumor volume calculated with the formula: π/6×(L×W2).
# Mice: Balb/c nu/nu male; 8 controls and 8 treated; 5 weeks old.
# Cells inoculated: H1437 (non-small cell lung cancer cell line) at 2×10^6 cells/tumour; two tumours per mouse.
# as §7
# Treatment and monitoring: Treatment commenced at Day 5 after inoculation. Mice were injected SC in abdomen three times per week, on alternating sides. Mice were weighed; tumour diameters measured in two dimensions and the health of the mice was monitored. Injections correspond to data points on the plots, with an additional treatment on Day 14 when no measurements were made.
# LIM 2405 = assay: MTT cell proliferation assay, LIM 2405; assay type: cell-based; details: 72 h; LIM 2405 human colorectal carcinoma; MTT after 3 days of incubation; read-out: IC50, inhibition of proliferation
# Description: as §1, §2, §3, §4, §5, §6
# MDA-MB-231 [5] = assay: Antimitotic effects (G2/M cell cycle block, DNA staining, ModFit) on MDA-MB-231; assay type: cell-based, human
# Text: as §8
# MCF-7 [6] = assay: MTT cell proliferation assay, MCF-7; assay type: cell-based; details: MCF7, 72 h; MCF-7 human breast carcinoma; MTT after 3 days of incubation; read-out: IC50, inhibition of proliferation
# Description: as §1, §2, §3, §4, §5, §6
# [7] = 20 mg/kg SC three times per week, post mortem
structure (smiles),measurement,setting,value
"COc1ccc(CNc2nc(NCc3ccc(CN)cc3)nc(NN3CC(=O)NC3=O)n2)cc1 (single isomer, unassigned) [Compound 2, 1-[4-(4-aminomethyl-benzylamino)-6-(4-methoxybenzylamino)-{1,3,5}-triazin-2-yl-amino]-imidazolidine-2,4-dione]",IC50,SW 480,30 nM
same,IC50,BaF/3,30 nM
same,Tumour growth (tumour volume),"[1]; 20 mg/kg SC three times per week from day 5, terminated at 14 days",significant difference in volume between control and treated tumours; also recorded: reduced the growth of the tumours
same,Liver or spleen weights vs vehicle control,[1]; [7],no significant difference
same,Tumor weight,[1]; [7],greatly reduced
same,IC50,MDA-MB-231 [2],10 nM
same,% of Taxol (proportion of cells in G2M test/proportion of cells in G2M Taxol),"MCF-7 [3]; 24 hrs, standard 1 μM Taxol",102%
same,IC50,"MCF-7 [3]; Homo sapiens, MCF7, inhibitors added to cells in log-growth for 24 hrs, read-out: IC50 for progression through the cell cycle",9 nM
same,IC50,BaF/3 cells,100 nM
same,Tumour growth (tumour volume),"[4]; 20 mg/kg SC three times per week from day 5, terminated at 26 days",Clear difference; also recorded: significant difference in volume between control and treated tumours
same,Size of dissected tumours,"[4]; 20 mg/kg three times per week, after sacrifice",clear difference in size
same,IC50,LIM 2405,30 nM
same,% of Taxol (proportion of cells in G2M test/proportion of cells in G2M Taxol),"MDA-MB-231 [5]; 24 hrs, standard 1 μM Taxol",103%
same,IC50,"MDA-MB-231 [5]; Homo sapiens, inhibitors added to cells in log-growth for 24 hrs, read-out: IC50 for progression through the cell cycle",9 nM
same,IC50,MCF-7 [6],10 nM

# Source: patent US8835629B2, “Anti-cancer agents” (The Walter and Eliza Hall Institute of Medical Research, priority 2010, dated 2014)
